± gives the expanded uncertainty stated by the source.

A word on the viscosity: it is the internal friction of a fluid under shear. The term mass density denotes the mass of a sample divided by its volume.

For the data set the following is noted: 101.33 kPa, Liquid; for viscosity: Capillary tube (Ostwald / Ubbelohde) method; for mass density: Pycnometric method.

For `CCCCCCCCn1cc[n+](C)c1.O=S(=O)([O-])C(F)(F)C(F)F`, the viscosity by setting is: (298.15 K) 279.4 ± 29 mPa·s; (323.15 K) 79.8 ± 8.1 mPa·s; (348.15 K) 32.5 ± 3.3 mPa·s; (373.15 K) 15.3 ± 1.5 mPa·s. Besides, the mass density is 1233 ± 2 kg/m3 (298.15 K), 1215 ± 2 kg/m3 (323.15 K), 1196 ± 2 kg/m3 (348.15 K) and 1176 ± 2 kg/m3 (373.15 K).
`CCCCn1cc[n+](C)c1.N#CN=C=[N-]` [1-butyl-3-methylimidazolium dicyanamide]: the viscosity reads like this: (298.15 K) 30.1 ± 3.2 mPa·s; (323.15 K) 13.5 ± 1.6 mPa·s; (348.15 K) 7.7 ± 1.1 mPa·s; (373.15 K) 4.9 ± 0.9 mPa·s. The mass density turned out to be 1065 ± 3 kg/m3 (298.15 K), 1050 ± 3 kg/m3 (323.15 K), 1036 ± 3 kg/m3 (348.15 K) and 1026 ± 3 kg/m3 (373.15 K).
In the case of `CCCC[n+]1ccc(C)cc1.F[B-](F)(F)F` [1-butyl-4-methylpyridinium tetrafluoroborate], the viscosity runs as follows: (298.15 K) 205.5 ± 21 mPa·s; (323.15 K) 52.7 ± 5.3 mPa·s; (348.15 K) 21.3 ± 2.1 mPa·s; (373.15 K) 10.5 ± 1.1 mPa·s. The mass density by setting is: (298.15 K) 1185 ± 2 kg/m3; (323.15 K) 1171 ± 2 kg/m3; (348.15 K) 1154 ± 2 kg/m3; (373.15 K) 1144 ± 2 kg/m3.

For the origin of these results see the NIST ThermoML archive (doi:10.1016/j.fluid.2011.11.030).
